Laboratory results as given in ChEMBL document CHEMBL1201862, “PubChem BioAssay data set” (2004).
Activity calls are given as the source filed them.

Legend:
[1] = HEp-2 cell cytotoxicity, dose response, cytotoxicity control for RSV inhibitor project, HTS (AID 2410); type: functional; details: human respiratory syncytial virus
[2] = target: FAD-linked sulfhydryl oxidase ALR (Homo sapiens, UniProt P55789); assay: inhibitors of human ALR sulfhydryl oxidase, dose response, biochemical, H2O2 detection, luminescence, cherry-pick (AID 493248)
BJ [3] = assay: cytotoxicity toward BJ-TERT fibroblasts, dose response, cell-based, RAS-independent, luminescence (AID 1933); type: functional; details: Homo sapiens
BJ [4] = assay: cells; type: functional, cell-based; details: Homo sapiens
BJ [5] = assay: cytotoxicity toward BJ-TERT-LT-ST fibroblasts, dose response, cell-based, RAS-independent, luminescence (AID 1935); type: functional; details: Homo sapiens;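 also: BJ fibroblasts immortalized with TERT plus LT and ST oncogenes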
[6] = cytotoxicity toward DRD oncogenic fibroblasts, dose response, cell-based, non-viral oncogenic, luminescence (AID 1934); type: functional; details: Homo sapiens
[7] = target: T1, Heat shock factor protein 1 (Mus musculus, UniProt P38532); assay: inhibition of MG132-induced HSE-luciferase signal, confirmation, cell-based, NIH3T3, luminescence, dose retest (AID 2382); type: functional;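 also: NIH3T3 fibroblasts with HSF1-driven luciferase reporter stressed by proteasome inhibitor MG132; luminescence from HSF1-driven luciferase expression after 8 hours of MG132 stress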
T1 sequence (P38532 whole entry): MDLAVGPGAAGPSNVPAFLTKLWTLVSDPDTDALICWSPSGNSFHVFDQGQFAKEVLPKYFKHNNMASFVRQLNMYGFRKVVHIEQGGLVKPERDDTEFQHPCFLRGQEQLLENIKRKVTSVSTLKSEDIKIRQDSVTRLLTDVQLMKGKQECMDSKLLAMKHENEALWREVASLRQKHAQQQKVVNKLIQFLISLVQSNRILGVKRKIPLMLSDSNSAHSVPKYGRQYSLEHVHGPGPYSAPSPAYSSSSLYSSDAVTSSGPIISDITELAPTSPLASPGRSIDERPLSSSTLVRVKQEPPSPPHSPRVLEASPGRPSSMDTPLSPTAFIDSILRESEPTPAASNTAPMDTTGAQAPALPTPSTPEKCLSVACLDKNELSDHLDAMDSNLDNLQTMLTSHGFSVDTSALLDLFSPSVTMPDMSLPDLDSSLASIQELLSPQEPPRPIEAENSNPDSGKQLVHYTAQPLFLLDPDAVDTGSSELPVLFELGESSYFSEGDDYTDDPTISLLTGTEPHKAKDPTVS

Large T antigen = Large T antigen (Simian virus 40, UniProt P03070); type: functional, Betapolyomavirus macacae;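 also: Confirmatory-stage PubChem screen for compounds that inhibit SV40 T antigen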
Cytochrome P450 1A2 = target: T2, Cytochrome P450 1A2 (Homo sapiens, UniProt P05177);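 also: PubChem cytochrome P450 panel assay, CYP1A2 panel member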
T2 sequence (P05177 whole entry): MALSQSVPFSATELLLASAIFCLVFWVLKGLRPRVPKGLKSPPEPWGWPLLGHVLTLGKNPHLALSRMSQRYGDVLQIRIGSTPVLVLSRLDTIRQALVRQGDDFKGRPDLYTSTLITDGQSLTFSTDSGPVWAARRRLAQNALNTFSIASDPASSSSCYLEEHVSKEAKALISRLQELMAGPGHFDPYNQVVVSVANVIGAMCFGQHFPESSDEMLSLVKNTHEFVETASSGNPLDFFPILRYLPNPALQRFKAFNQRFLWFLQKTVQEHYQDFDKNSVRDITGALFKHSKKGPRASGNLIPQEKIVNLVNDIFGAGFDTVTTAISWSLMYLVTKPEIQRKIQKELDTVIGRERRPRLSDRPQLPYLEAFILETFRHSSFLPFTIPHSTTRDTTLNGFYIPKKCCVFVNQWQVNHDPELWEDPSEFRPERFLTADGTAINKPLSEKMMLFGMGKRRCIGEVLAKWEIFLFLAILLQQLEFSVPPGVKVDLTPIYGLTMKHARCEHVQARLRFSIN

[8] = inhibitors of intracellular T. cruzi replication, confirmation, NIH3T3 host cells, beta-gal luminescence (AID 2044); type: functional, cell-based;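 also: intracellular parasites grown in NIH/3T3 mouse fibroblasts as host cells; luminescent beta-galactosidase reporter signal from transgenic T. cruzi replicating inside host cells; inhibitors lower the luminescence signal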
[9] = cytotoxicity toward NIH3T3 fibroblasts, dose response, counter-screen, cell-based, ATP luminescence, mouse fibroblasts (AID 2010); type: functional;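 also: cells exposed to compound for about 90 hours before reading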
[10] = inhibitors of firefly luciferase expression or activity, dose response, H4 neuroglioma cells, luminescence (AID 1990); type: functional, cell-based
[11] = Luminescence Cell-Based Dose Response HTS to Identify Inhibitors of 5'UTR Stem-Loop Driven Prion Protein mRNA Translation in H4 Neuroglioblastoma Cells. [Related pubchem assays: 1827 (Project Summary), 1813 (Primary HTS)]; type: functional
[12] = inhibitors of SNCA 5'UTR-driven reporter translation, confirmation, H4 neuroglioma cells, luminescence (AID 1988); type: functional, cell-based
[13] = tested on: Streptococcus sp. 'group A'; assay: growth inhibition of control SK(-) GAS strain, dose response, counter-screen for streptokinase expression inhibitor project, luminescence, kanamycin, BacTiterGlo, confirmation (AID 1900); type: functional, organism-based
Streptokinase A = target: T3, Streptokinase A (Streptococcus pyogenes serotype M1, UniProt P10520); assay: S. pyogenes streptokinase expression inhibitors, potency, dose response, plasminogen activation absorbance, OD405 (AID 1914); type: functional, Streptococcus pyogenes M1 GAS;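 also: secreted streptokinase activity via plasminogen activation per viability signal from cell pellet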
T3 sequence (P10520 whole entry): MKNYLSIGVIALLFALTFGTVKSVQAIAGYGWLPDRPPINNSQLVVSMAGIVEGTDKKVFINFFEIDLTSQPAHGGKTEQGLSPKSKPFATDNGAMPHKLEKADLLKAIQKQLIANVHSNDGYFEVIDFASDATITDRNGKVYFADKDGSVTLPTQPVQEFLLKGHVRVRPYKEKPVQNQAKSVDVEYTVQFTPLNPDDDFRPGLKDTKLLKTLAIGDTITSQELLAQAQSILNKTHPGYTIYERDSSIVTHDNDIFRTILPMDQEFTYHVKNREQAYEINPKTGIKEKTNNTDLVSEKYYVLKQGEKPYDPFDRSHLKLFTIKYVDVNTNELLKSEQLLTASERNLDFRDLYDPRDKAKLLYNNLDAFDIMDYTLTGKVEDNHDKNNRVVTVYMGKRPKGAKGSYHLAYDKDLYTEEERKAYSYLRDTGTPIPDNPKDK

Streptococcus = assay: Group A Streptococcus viability loss, dose response, counter-screen for streptokinase expression inhibitor project, luminescence, BacTiterGlo (AID 1915); type: functional, organism-based;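 also: potency for reduction of bacterial viability or growth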
[14] = Luminescence Cell-Based Dose Confirmation HTS to Identify Activators of 5'UTR Stem-Loop Driven Alpha-Synuclein mRNA Translation in H4 Neuroglioblastoma Cells. [Related pubchem assays: 1829 (Project Summary), 1814 (Primary HTS)]; type: functional
[15] = Luminescence Cell-Based Dose Response HTS to Identify Activators of Luciferase Translation or Activity in H4 […] Cells. [Related pubchem assays: 1829 (Project Summary), 1814 (Primary HTS)]; type: functional
H4 = assay: Luminescence Cell-Based Dose Response HTS to Identify Activators of 5'UTR Stem-Loop Driven Prion Protein mRNA Translation in H4 Neuroglioblastoma Cells. [Related pubchem assays: 1829 (Project Summary), 1814 (Primary HTS)]; type: functional; details: Homo sapiens
Cytochrome P450 2C19 = Cytochrome P450 2C19 (Homo sapiens, UniProt P33261); assay: Cytochrome panel assay with activity outcomes. Panel member name: p450-cyp2c19 Compounds with AC50 equal or less than 10 uM are considered active; type: functional; details: read-out: AC50
Cytochrome P450 2D6 = Cytochrome P450 2D6 (Homo sapiens, UniProt P10635);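 also: CYP2D6 member of a cytochrome P450 panel assay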
Sequence of Cytochrome P450 2D6 (P10635 whole entry): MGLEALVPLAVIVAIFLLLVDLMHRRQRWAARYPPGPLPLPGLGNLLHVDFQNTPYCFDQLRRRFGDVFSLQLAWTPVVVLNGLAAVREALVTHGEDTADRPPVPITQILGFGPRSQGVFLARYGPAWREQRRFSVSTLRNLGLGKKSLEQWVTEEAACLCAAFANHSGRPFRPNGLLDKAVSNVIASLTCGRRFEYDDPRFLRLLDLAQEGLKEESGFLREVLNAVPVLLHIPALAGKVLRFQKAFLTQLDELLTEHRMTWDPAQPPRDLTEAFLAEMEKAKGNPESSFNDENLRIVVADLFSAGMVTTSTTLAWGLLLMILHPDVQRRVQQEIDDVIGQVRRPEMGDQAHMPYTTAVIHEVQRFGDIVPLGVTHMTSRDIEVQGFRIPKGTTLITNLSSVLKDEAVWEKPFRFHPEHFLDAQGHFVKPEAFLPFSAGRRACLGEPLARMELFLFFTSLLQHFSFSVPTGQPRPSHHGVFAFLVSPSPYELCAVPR

Sequence of FAD-linked sulfhydryl oxidase ALR (P55789 whole entry): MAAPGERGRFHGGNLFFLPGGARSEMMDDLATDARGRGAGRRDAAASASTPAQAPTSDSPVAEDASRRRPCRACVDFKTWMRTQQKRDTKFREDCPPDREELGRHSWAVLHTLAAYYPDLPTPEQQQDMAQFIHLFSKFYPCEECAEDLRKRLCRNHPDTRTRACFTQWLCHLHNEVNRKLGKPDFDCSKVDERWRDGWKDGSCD
Sequence of Large T antigen (P03070 whole entry): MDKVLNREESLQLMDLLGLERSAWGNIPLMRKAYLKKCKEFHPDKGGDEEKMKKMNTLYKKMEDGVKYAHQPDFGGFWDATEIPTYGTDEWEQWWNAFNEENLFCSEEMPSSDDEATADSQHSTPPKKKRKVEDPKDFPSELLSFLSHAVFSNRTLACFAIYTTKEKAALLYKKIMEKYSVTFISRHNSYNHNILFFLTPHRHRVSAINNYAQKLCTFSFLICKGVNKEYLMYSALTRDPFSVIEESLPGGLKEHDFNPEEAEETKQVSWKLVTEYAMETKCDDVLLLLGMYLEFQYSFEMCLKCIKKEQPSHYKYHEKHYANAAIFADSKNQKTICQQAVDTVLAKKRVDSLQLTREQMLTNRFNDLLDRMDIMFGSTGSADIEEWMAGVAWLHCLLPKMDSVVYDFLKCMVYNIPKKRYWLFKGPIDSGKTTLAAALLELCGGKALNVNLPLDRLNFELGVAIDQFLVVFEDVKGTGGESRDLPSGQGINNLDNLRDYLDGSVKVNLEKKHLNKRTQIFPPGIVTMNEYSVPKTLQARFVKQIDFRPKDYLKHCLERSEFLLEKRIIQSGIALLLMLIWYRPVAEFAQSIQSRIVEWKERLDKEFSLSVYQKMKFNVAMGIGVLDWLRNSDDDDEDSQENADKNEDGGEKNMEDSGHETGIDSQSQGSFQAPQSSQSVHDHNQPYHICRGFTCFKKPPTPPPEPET
Sequence of Cytochrome P450 2C19 (P33261 whole entry): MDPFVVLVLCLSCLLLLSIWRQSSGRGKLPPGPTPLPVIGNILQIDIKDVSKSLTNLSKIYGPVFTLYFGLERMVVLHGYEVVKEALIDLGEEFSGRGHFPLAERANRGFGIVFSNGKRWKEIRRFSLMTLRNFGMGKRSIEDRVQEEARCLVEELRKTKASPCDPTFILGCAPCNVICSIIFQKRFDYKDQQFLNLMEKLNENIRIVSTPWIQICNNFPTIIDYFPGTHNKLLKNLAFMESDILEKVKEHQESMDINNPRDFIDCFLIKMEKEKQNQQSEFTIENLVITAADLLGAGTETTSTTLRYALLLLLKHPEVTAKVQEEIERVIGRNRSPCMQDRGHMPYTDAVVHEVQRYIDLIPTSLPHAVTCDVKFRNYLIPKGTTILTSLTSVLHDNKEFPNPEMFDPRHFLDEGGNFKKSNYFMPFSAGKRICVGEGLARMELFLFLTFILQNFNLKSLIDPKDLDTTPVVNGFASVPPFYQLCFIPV

Cc1cc2nc(SCCOC(=O)Nc3cccc(Cl)c3)nc(C)c2cc1C
CC50 [1]: 32.2 µM (active)

Cc1cc(C(=O)CSc2ccccc2)cc(C)c1O
CC50 [1]: 49.6 µM (active)

CC(C)C(=O)Nc1ccc2c(c1)nc1n2CCSC1
AC50 [2]: 0.245 µM (active)

COc1ccc(Nc2cc(C)c3ccc(O)cc3n2)cc1
CC50 [1]: 11.7 µM (active)

Cc1ccc2nc(O)c(CN(c3cccc(C)c3C)S(=O)(=O)c3ccccc3)cc2c1
EC50 (BJ [3]): 78.2 µM (active)
EC50 (BJ [4]): 46.6 µM (active)
EC50 (BJ [5]): > 150 µM (not active)
EC50 [6]: 69.9 µM (active)

COc1ccc(CCNC(=O)CN2CCN(Cc3ccccc3F)C2=O)cc1OC
EC50 [7]: > 195 µM (not active)

Cc1cc(C)n(CCc2nc(-c3ccco3)cs2)n1
IC50 (Large T antigen): 65.6 µM (active)
AC50 [2]: 4.56 µM (active)

O=C(O)c1ccccc1C(=O)Nc1ccc(Nc2ccc([N+](=O)[O-])cc2[N+](=O)[O-])cc1
AC50 [2]: 3.88 µM (active)

COc1ccc(NC(S)=Nc2ccc(Oc3ccccc3)cc2)cc1
EC50 [7]: > 195 µM (not active)

C=CCn1c(SCc2c(C)noc2C)nc2sc3c(c2c1=O)CCC(C)C3 (stereo not given)
EC50 (BJ [3]): 23.8 µM (active)
EC50 (BJ [4]): 4.12 µM (inconclusive)
EC50 (BJ [5]): > 150 µM (inconclusive)
EC50 [6]: 9.03 µM (active)

O=C(O)Cc1cc(I)c(Oc2ccc(O)c(I)c2)c(I)c1 [TIRATRICOL]
CC50 [1]: 13 µM (active)
AC50 (Cytochrome P450 1A2): 12.6 µM (inconclusive)

Cc1ccc(-c2nnc(SCC(=O)N/N=C/c3c(C)nn(-c4ccccc4)c3C)n2-c2ccc(C)cc2)cc1
CC50 [1]: 20.5 µM (active)

COc1ccc(NCc2ccc(OC)c(Cn3ccnc3)c2)c(OC)c1
EC50 [8]: 0.588 µM (active)
EC50 [9]: > 60 µM (not active)
AC50 [2]: 1.76 µM (active)

CN(C)c1ccc(-c2nnc(S)n2-c2ccccc2)cc1
AC50 [2]: 64.6 µM (active)

O=C(NN=C1CCCCCCCCCCC1)c1ccccc1F
EC50 [7]: > 195 µM (not active)

COC(=O)C1=C(c2cc3ccccc3o2)C[C@@H]2CC[C@H]1N2C(=O)N1CCCCC1
EC50 [10]: > 120 µM (not active)
EC50 (BJ [3]): 4.58 µM (active)
EC50 [11]: 12.1 µM (active)
EC50 [12]: 10.5 µM (active)
EC50 (BJ [4]): 28.8 µM (active)
EC50 (BJ [5]): 20.9 µM (active)
EC50 [6]: 3.8 µM (inconclusive)

COc1cc(SC)ccc1C(=O)N1CCN(c2ccc(O)cc2)CC1
IC50 (Large T antigen): 5.95 µM (active)
AC50 [2]: 0.68 µM (active)

Cc1cc(C(=O)N2CCCC(Nc3ccccc3)C2)c2ccc(F)cc2n1 (stereo not given)
AC50 [2]: 2.24 µM (active)

CCOC(=O)c1sc(NC(=O)c2ccccc2OC)nc1C
EC50 (BJ [3]): 22.3 µM (active)
EC50 (BJ [4]): 22.8 µM (active)
EC50 (BJ [5]): > 150 µM (inconclusive)
EC50 [6]: 14.7 µM (active)

COCCCn1c2nc3ccccc3nc2c2c(=O)n(Cc3ccc(Cl)cc3)cnc21
CC50 [1]: > 50 µM (active)

NC1=NC(c2c[nH]nc2-c2cccc(F)c2)n2c(nc3ccccc32)N1 (stereo not given)
EC50 [7]: 27.5 µM (active)

Cc1ccccc1OCC(=O)NC(=S)Nc1ccc(Br)c(C)n1
EC50 [10]: 25.1 µM (active)
EC50 [13]: > 150 µM (not active)
EC50 [11]: 21 µM (active)
EC50 [12]: 14.2 µM (active)
EC50 (Streptokinase A): 57.1 µM (active)
EC50 (Streptococcus): > 150 µM (not active)
AC50 (Cytochrome P450 1A2): 3.16 µM (inconclusive)

CN(C)c1ccc(CNS(=O)(=O)c2ccc3c(c2)NC(=O)CS3)cc1
AC50 [2]: 7.37 µM (active)

CC(=O)N1c2ccc(S(=O)(=O)N3c4ccccc4CC3C)cc2CC1C (stereo not given)
CC50 [1]: 15.1 µM (active)

COc1cccc(CNc2ncc(C(=O)Nc3cc(OC)c(OC)c(OC)c3)c(C)n2)c1
EC50 (BJ [3]): > 150 µM (not active)
EC50 (BJ [4]): 46.7 µM (active)
EC50 (BJ [5]): 17.9 µM (inconclusive)
EC50 [6]: 19.6 µM (inconclusive)

O=Cc1c(N2CCN(c3ccccc3)CC2)nc2ccccn2c1=O
EC50 [14]: > 120 µM (not active)
EC50 [15]: 17.8 µM (active)
EC50 (H4): > 120 µM (not active)
AC50 [2]: 3.72 µM (active)

Cn1cc(CCNC(=O)CC2C(=O)NCCN2Cc2cccc(Oc3ccccc3)c2)cn1 (stereo not given)
EC50 [7]: > 195 µM (not active)

Cc1ccc(-c2nnc(SCC(=O)N/N=C/c3c(C)nn(-c4ccccc4)c3C)n2-c2ccccc2)cc1
CC50 [1]: 17.2 µM (active)

Cc1ccc(CN2CC(C(=O)Nc3ccc(C)cn3)CC2=O)cc1 (stereo not given)
EC50 [7]: > 195 µM (not active)

COc1ccc(/C=N/NC(=O)c2cc(-c3cccn3C)[nH]n2)cc1OC
EC50 [7]: > 195 µM (not active)

COc1cc(/C=N\Nc2nc3ccccc3[nH]2)cc(OC)c1OC
AC50 [2]: 0.997 µM (active)
AC50 (Cytochrome P450 2C19): 17.8 µM (inconclusive)
AC50 (Cytochrome P450 2D6): 17.8 µM (inconclusive)

CNc1nnc(-c2cccc(N(C)C)c2)s1
AC50 [2]: 0.046 µM (active)

S=C(Sc1ccc(Cl)cc1)Sc1ccc(Cl)cc1
EC50 (BJ [3]): 3.4 µM (inconclusive)
EC50 (BJ [4]): > 150 µM (inconclusive)
EC50 (BJ [5]): 13.1 µM (inconclusive)
EC50 [6]: 9.25 µM (active)
